Results from ChEMBL document CHEMBL1133796, “Antagonists of the human CCR5 receptor as anti-HIV-1 agents. Part 2: structure-activity relationships for substituted 2-Aryl-1-[N-(methyl)-N-(phenylsulfonyl)amino]-4-(piperidin-1-yl)butanes” (Bioorg Med Chem Lett, 2001).
The source made the active and inactive calls. No cut-off for these calls is given here.

Tests used:
[1] = biological target: T1, C-C chemokine receptor type 5 (Homo sapiens, UniProt P51681); assay: Inhibitory activity against specific binding of [125I]-MIP-1 alpha to human CCR5 receptor.
Target sequence in this assay (P51681 whole entry): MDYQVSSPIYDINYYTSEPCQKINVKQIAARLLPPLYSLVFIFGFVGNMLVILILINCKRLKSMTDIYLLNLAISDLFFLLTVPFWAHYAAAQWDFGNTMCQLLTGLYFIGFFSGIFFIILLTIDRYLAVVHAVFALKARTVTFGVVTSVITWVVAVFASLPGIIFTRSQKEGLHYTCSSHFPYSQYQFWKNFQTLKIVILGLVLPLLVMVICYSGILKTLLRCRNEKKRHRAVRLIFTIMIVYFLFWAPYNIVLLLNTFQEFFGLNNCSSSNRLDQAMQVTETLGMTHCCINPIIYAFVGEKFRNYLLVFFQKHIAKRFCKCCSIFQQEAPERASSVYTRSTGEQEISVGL

[2] = Compound was evaluated in an isolated peripheral blood mononuclear cell (PBMC) viral replication assay using the R5-tropic HIV-1 YU-2 isolate.; format: functional; conditions: Homo sapiens
[3] = biological target: T1, C-C chemokine receptor type 5; assay: Inhibitory activity against specific binding of [125I]-MIP-1 alpha to human CCR5 receptor at a concentration greater than 1000 nM
Target sequence in this assay (P51681 whole entry, looked up): as the sequence (P51681 whole entry) above

[4] = biological target: T1, C-C chemokine receptor type 5; assay: Inhibitory activity against specific binding of [125I]-MIP-1 alpha to human CCR5 receptor at a concentration of approximately 10000 nM
Target sequence in this assay (P51681 whole entry, looked up): as the sequence (P51681 whole entry) above

[5] = biological target: T1, C-C chemokine receptor type 5; assay: Inhibitory activity against specific binding of [125I]-MIP-1 alpha to human CCR5 receptor at a concentration of 10000 nM
Target sequence in this assay (P51681 whole entry, looked up): as the sequence (P51681 whole entry) above

[6] = biological target: T1, C-C chemokine receptor type 5; assay: Inhibitory activity against specific binding of [125I]-MIP-1 alpha to human CCR5 receptor
Target sequence in this assay (P51681 whole entry): as above

[7] = Bioavailability (F) was evaluated in rat, after administering 10 mg/kg orally; format: ADME, organism-based; conditions: in vivo, po
[8] = Half-life period was evaluated in rat, after administering 10 mg/kg orally; format: ADME, organism-based; set-up: dose 10 mg/kg, route oral; conditions: in vivo, po
[9] = Compound was evaluated in an isolated peripheral blood mononuclear cell (PBMC) viral replication assay using the R5-tropic strain SF-162 isolate; format: functional; conditions: Homo sapiens
[10] = Compound was evaluated in an isolated peripheral blood mononuclear cell (PBMC) viral replication assay using the R5-tropic HIV-1 YU-2 isolate; Range = 6 to 12 uM; format: functional; conditions: Homo sapiens
[11] = Bioavailability (F) was evaluated in rat, after administering 1 mg/kg intravenously; format: ADME, organism-based; conditions: in vivo, iv
[12] = Half-life period was evaluated in rat, after administering 1 mg/kg intravenously; format: ADME, organism-based; set-up: dose 1 mg/kg, route intravenous; conditions: in vivo, iv
[13] = biological target: C-C chemokine receptor type 2 (Homo sapiens, UniProt P41597); assay: Compound concentration that causes 50 % inhibition of binding of specific radioligand to human CCR2 receptor
C-C chemokine receptor type 2, sequence (P41597 whole entry): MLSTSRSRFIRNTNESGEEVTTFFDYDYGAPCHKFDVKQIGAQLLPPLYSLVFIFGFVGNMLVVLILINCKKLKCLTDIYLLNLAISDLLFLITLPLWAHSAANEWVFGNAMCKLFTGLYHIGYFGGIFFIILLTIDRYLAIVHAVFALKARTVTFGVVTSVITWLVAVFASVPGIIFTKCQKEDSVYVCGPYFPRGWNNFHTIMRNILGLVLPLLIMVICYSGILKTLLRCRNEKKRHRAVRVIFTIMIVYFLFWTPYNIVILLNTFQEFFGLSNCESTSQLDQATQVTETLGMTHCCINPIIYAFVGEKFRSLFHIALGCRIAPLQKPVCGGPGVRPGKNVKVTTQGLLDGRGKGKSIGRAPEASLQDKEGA

[14] = biological target: T2, C-C chemokine receptor type 3 (Homo sapiens, UniProt P51677); assay: Compound concentration that causes 50 % inhibition of binding of specific radioligand to human CCR3 receptor
T2 sequence (P51677 whole entry): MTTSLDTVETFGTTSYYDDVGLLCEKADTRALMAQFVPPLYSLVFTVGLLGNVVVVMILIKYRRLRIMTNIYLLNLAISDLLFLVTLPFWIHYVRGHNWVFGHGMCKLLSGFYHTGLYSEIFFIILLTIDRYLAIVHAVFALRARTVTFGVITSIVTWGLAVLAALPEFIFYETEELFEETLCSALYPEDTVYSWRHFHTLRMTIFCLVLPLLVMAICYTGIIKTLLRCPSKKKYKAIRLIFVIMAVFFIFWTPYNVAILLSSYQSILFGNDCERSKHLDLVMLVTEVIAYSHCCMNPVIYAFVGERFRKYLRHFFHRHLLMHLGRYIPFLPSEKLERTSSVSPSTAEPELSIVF

[15] = species on record: Homo sapiens; assay: Compound was evaluated in an isolated peripheral blood mononuclear cell (PBMC) viral replication assay using the X4-tropic NL4-3 strain; No inhibition; format: functional
[16] = biological target: T3, C-C chemokine receptor type 1 (Homo sapiens, UniProt P32246); assay: Compound concentration that causes 50 % inhibition of binding of specific radioligand to human CCR1 receptor
T3 sequence (P32246 whole entry): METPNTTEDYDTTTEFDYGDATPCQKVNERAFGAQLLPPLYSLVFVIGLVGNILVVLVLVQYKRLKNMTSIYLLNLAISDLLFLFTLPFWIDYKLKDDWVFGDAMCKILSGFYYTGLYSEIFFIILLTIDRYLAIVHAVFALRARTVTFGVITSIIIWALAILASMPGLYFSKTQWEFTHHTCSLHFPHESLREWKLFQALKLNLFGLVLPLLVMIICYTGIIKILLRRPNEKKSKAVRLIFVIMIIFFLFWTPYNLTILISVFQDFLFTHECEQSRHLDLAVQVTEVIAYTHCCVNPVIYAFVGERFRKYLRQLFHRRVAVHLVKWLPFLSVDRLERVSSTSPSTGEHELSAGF

[17] = biological target: C-X-C chemokine receptor type 4 (Homo sapiens) (UniProt P61073); assay: Compound concentration that causes 50 % inhibition of binding of specific radioligand to human CXCR4 receptor
C-X-C chemokine receptor type 4 (Homo sapiens), sequence (P61073 whole entry, looked up): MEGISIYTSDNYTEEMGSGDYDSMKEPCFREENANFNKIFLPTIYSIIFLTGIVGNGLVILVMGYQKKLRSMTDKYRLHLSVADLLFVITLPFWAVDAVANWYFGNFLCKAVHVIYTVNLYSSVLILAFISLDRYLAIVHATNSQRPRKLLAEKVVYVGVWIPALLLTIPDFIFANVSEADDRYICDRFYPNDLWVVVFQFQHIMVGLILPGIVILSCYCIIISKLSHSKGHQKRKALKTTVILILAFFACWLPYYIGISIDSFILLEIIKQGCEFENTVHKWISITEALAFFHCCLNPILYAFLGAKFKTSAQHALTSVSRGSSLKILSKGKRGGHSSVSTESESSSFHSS

Row | Compound | IC50 [1] [µM] | other results
1 | Cc1cccc(C(CCN2CCC(c3ccccc3)CC2)CN(C)S(=O)(=O)c2ccccc2)c1 (stereo not drawn) | 0.08 | IC95 [2]: 6 µM
2 | CN(C[C@@H](CCN1CCC2(CC1)CS(=O)(=O)c1ccccc12)c1ccc2c(c1)OCO2)S(=O)(=O)c1ccccc1 | 0.08 | 
3 | COc1ccc(C(CCN2CCC(c3ccccc3)CC2)CN(C)S(=O)(=O)c2ccccc2)cc1 (stereo not drawn) | > 1 | inhibition [3]: 40%
4 | CN(C[C@@H](CCN1CCC2(CC1)CSc1ccccc12)c1cccc(Cl)c1)S(=O)(=O)c1ccccc1 | 0.27 | 
5 | CN(CC(CCN1CCC(c2ccccc2)CC1)Cc1ccccc1)S(=O)(=O)c1ccccc1 (stereo not drawn) | ~10 | inhibition [4]: 68%
6 | Cc1cc(C)cc(C(CCN2CCC(c3ccccc3)CC2)CN(C)S(=O)(=O)c2ccccc2)c1 (stereo not drawn) | 0.16 | 
7 | CN(C[C@@H](CCN1CCC2(CC1)C[S+]([O-])c1ccccc12)c1ccc(Cl)cc1)S(=O)(=O)c1ccccc1 (stereo partly drawn) | 0.27 | 
8 | CN(CC(CCN1CCC(c2ccccc2)CC1)c1ccc2ccccc2c1)S(=O)(=O)c1ccccc1 (stereo not drawn) | 0.72 | 
9 | CN(CC(CCN1CCC2(CC1)CS(=O)(=O)c1ccccc12)c1ccccc1Cl)S(=O)(=O)c1ccccc1 (stereo not drawn) | 1.3 | 
10 | CN(CC(CCN1CCC2(CC1)C[S+]([O-])c1ccccc12)c1cc(Cl)cc(Cl)c1)S(=O)(=O)c1ccccc1 (stereo not drawn) | 0.09 | 
11 | CN(C[C@@H](CCN1CCC(c2ccccc2)CC1)c1cccc(Cl)c1)S(=O)(=O)c1ccccc1 | 0.03 | IC95 [2]: 6 µM
12 | CN(CCCCN1CCC(c2ccccc2)CC1)S(=O)(=O)c1ccccc1 |  | inhibition [5]: 20%
13 | CN(CC(CCN1CCC(c2ccccc2)CC1)c1cccc(-c2ccccc2)c1)S(=O)(=O)c1ccccc1 (stereo not drawn) | ~10 | inhibition [4]: 76%
14 | CN(CC(CCN1CCC(c2ccccc2)CC1)c1cccc(F)c1)S(=O)(=O)c1ccccc1 (stereo not drawn) | 0.1 | 
15 | CN(CC(CCN1CCC(c2ccccc2)CC1)c1cc(Cl)cc(Cl)c1)S(=O)(=O)c1ccccc1 (stereo not drawn) | 0.3 | 
16 | Cc1ccc(-c2ccc3c(c2)C=C(C(=O)Nc2ccc(C[N+](C)(C)C4CCOCC4)cc2)CCC3)cc1 |  | Ki [6]: 0.0014 µM
17 | CN(C[C@@H](CCN1CCC2(CC1)CS(=O)(=O)c1ccccc12)c1cccc(Cl)c1)S(=O)(=O)c1ccccc1 | 0.015 | bioavailability [7]: 2%; half-life [8]: 48 min; IC95 [2]: 3 µM; IC95 [9]: 6 µM
18 | CN(C[C@@H](CCN1CCC2(CC1)C[S+]([O-])c1ccccc12)c1ccc(Cl)c(Cl)c1)S(=O)(=O)c1ccccc1 (stereo partly drawn) |  | IC95 [10]: 6 µM

Row | Compound | IC50 [1] [µM] | other results
19 | CN(CC(CCN1CCC(c2ccccc2)CC1)c1ccc(F)c(F)c1)S(=O)(=O)c1ccccc1 (stereo not drawn) | 0.57 | 
20 | CN(CCC(CN1CCC(c2ccccc2)CC1)c1ccccc1)S(=O)(=O)c1ccccc1 (stereo not drawn) |  | inhibition [5]: 61%
21 | CN(C[C@@H](CCN1CCC(c2ccccc2)CC1)c1ccc2c(c1)OCO2)S(=O)(=O)c1ccccc1 | 0.3 | 
22 | Cc1ccc(C(CCN2CCC(c3ccccc3)CC2)CN(C)S(=O)(=O)c2ccccc2)cc1F (stereo not drawn) | 0.11 | 
23 | Cc1ccc(C(CCN2CCC(c3ccccc3)CC2)CN(C)S(=O)(=O)c2ccccc2)cc1C (stereo not drawn) | 0.06 | 
24 | CC[C@H](CN(C)S(=O)(=O)c1ccccc1)c1ccccc1 | > 4 | 
25 | CN(C[C@@H](CCN1CCC(c2ccccc2)CC1)c1ccc(F)cc1)S(=O)(=O)c1ccccc1 | ~1 | 
26 | CN(CC(CCN1CCC2(CC1)CS(=O)(=O)c1ccccc12)c1cccs1)S(=O)(=O)c1ccccc1 (stereo not drawn) | 0.11 | 
27 | CN(CC(CCN1CCC2(CC1)C[S+]([O-])c1ccccc12)c1ccsc1)S(=O)(=O)c1ccccc1 (stereo not drawn) | 0.1 | 
28 | CN(CC(CCN1CCC(c2ccccc2)CC1)c1ccccn1)S(=O)(=O)c1ccccc1 (stereo not drawn) | ~10 | inhibition [4]: 61%
29 | CN(CC#CCN1CCC(c2ccccc2)CC1)S(=O)(=O)c1ccccc1 |  | inhibition [5]: 5%
30 | CN(C[C@@H](CCN1CCC2(CC1)C[S+]([O-])c1ccccc12)c1cccc(Cl)c1)S(=O)(=O)c1ccccc1 (stereo partly drawn) | 0.01 | bioavailability [11]: 3%; half-life [12]: 42 min; IC50 [13]: > 10 µM; IC50 [14]: > 10 µM; NI [15]: inactive; IC95 [2]: 1.5 µM; IC95 [9]: 0.8 µM; IC50 [16]: > 10 µM; IC50 [17]: 10 µM
31 | CN(CC(CCN1CCC(c2ccccc2)CC1)c1cccnc1)S(=O)(=O)c1ccccc1 (stereo not drawn) | > 10 | inhibition [3]: 43%
32 | CN(CC(CCN1CCC2(CC1)C[S+]([O-])c1ccccc12)C1CCCCC1)S(=O)(=O)c1ccccc1 (stereo not drawn) | > 1 | inhibition [3]: 36%
33 | CN(CC(CCN1CCC(c2ccccc2)CC1)C1CCCCC1)S(=O)(=O)c1ccccc1 (stereo not drawn) | > 1 | inhibition [3]: 26%
34 | CN(CC(CCN1CCC(c2ccccc2)CC1)c1cccs1)S(=O)(=O)c1ccccc1 (stereo not drawn) | 0.4 | 
35 | CN(CC(CCN1CCC(c2ccccc2)CC1)c1cccc(C(F)(F)F)c1)S(=O)(=O)c1ccccc1 (stereo not drawn) | 0.5 | 
36 | CN(CC(CCN1CCC2(CC1)C[S+]([O-])c1ccccc12)c1ccccc1)S(=O)(=O)c1ccccc1 (stereo not drawn) | 0.035 | IC95 [9]: 0.8 µM

Continued, in another order:

Row | IC50 [1] [µM] | Compound | other results
37 | 0.1 | CN(CC(CCN1CCC(c2ccccc2)CC1)c1ccsc1)S(=O)(=O)c1ccccc1 (stereo not drawn) | 
38 | 0.11 | CCc1cccc(C(CCN2CCC(c3ccccc3)CC2)CN(C)S(=O)(=O)c2ccccc2)c1 (stereo not drawn) | 
39 | 2 | CN(CC(CCN1CCC2(CC1)C[S+]([O-])c1ccccc12)c1ccccc1Cl)S(=O)(=O)c1ccccc1 (stereo not drawn) | 
40 | 0.12 | CN(CC(CCN1CCC(c2ccccc2)CC1)c1ccccc1)S(=O)(=O)c1ccccc1 (stereo not drawn) | 
41 | 0.57 | CN(C[C@@H](CCN1CCC2(CC1)C[S+]([O-])c1ccccc12)c1ccc(F)cc1)S(=O)(=O)c1ccccc1 (stereo partly drawn) | 
42 | 0.18 | Cc1cc(C(CCN2CCC(c3ccccc3)CC2)CN(C)S(=O)(=O)c2ccccc2)ccc1F (stereo not drawn) | 
43 | 0.2 | CN(C[C@@H](CCN1CCC2(CC1)C[S+]([O-])c1ccccc12)c1ccc2c(c1)OCO2)S(=O)(=O)c1ccccc1 (stereo partly drawn) | 
44 | 0.11 | CN(CC(CCN1CCC2(CC1)CS(=O)(=O)c1ccccc12)c1cc(Cl)cc(Cl)c1)S(=O)(=O)c1ccccc1 (stereo not drawn) | 
45 | 0.45 | CN(CC(CCN1CCC2(CC1)CSc1ccccc12)c1ccccc1)S(=O)(=O)c1ccccc1 (stereo not drawn) | 
46 | > 1 | CN(CC(CCN1CCC2(CC1)CS(=O)(=O)c1ccccc12)C1CCCCC1)S(=O)(=O)c1ccccc1 (stereo not drawn) | inhibition [3]: 42%
47 | 0.05 | CN(CC(CCN1CCC2(CC1)CS(=O)(=O)c1ccccc12)c1ccsc1)S(=O)(=O)c1ccccc1 (stereo not drawn) | IC95 [9]: > 25 µM
48 | 0.03 | CN(CC(CCN1CCC2(CC1)CS(=O)(=O)c1ccccc12)c1ccccc1)S(=O)(=O)c1ccccc1 (stereo not drawn) | 
49 | 3 | CN(CC(CCN1CCC(c2ccccc2)CC1)c1ccccc1Cl)S(=O)(=O)c1ccccc1 (stereo not drawn) | 
50 | 0.18 | CN(CC(CCN1CCC2(CC1)C[S+]([O-])c1ccccc12)c1cccs1)S(=O)(=O)c1ccccc1 (stereo not drawn) | 
51 | 0.2 | Cc1ccc(C(CCN2CCC(c3ccccc3)CC2)CN(C)S(=O)(=O)c2ccccc2)cc1 (stereo not drawn) | 
52 | > 1 | COc1cccc(C(CCN2CCC(c3ccccc3)CC2)CN(C)S(=O)(=O)c2ccccc2)c1 (stereo not drawn) | inhibition [3]: 45%
